ChEMBL document CHEMBL4130451, “Design and Synthesis of N-Aryl Phenoxyethoxy Pyridinones as Highly Selective and CNS Penetrant mGlu3 NAMs” (ACS Med Chem Lett, 2017)
Calls of active or inactive are those of the source. No cut-off for these calls is given here.

What was measured:
[1] = target: Metabotropic glutamate receptor 5 (Rattus norvegicus) (UniProt P31424); experiment: Positive allosteric modulation of rat mGlu5 receptor expressed in HEK293A cells assessed as increase in glutamate induced-calcium mobilization by measuring maximum glutamate response preincubated for 2.3 mins followed by glutamate addition measured for 1.9 mins by Fluo-4 AM dye based fluorescence assay relative to glutamate; assay type: functional, cell-based
[2] = target: Metabotropic glutamate receptor 3 (Rattus norvegicus, UniProt P31422); experiment: (§1) Negative allosteric modulation of rat mGlu3 receptor expressed in TREX cells coexpressing Galpha15 assessed as inhibition of glutamate induced-calcium mobilization preincubated for 2.3 mins followed by glutamate addition measured for 2.6 mins by Fluo-4 AM dye based fluorescence assay; assay type: functional, cell-based
[3] = target: Metabotropic glutamate receptor 3 (Rattus norvegicus) (UniProt P31422); experiment: as §1, with “mobilization by measuring minimum glutamate response” for “mobilization”, “assay relative to glutamate” for “assay”; assay type: functional, cell-based
[4] = target: Metabotropic glutamate receptor 5 (Rattus norvegicus, UniProt P31424); experiment: Positive allosteric modulation of rat mGlu5 receptor expressed in HEK293A cells assessed as increase in glutamate induced-calcium mobilization preincubated for 2.3 mins followed by glutamate addition measured for 1.9 mins by Fluo-4 AM dye based fluorescence assay; assay type: functional, cell-based
Mus musculus [5] = experiment: Antidepressant activity in CD-1 mouse assessed as reduction in immobility time at 30 mg/kg administered ip 15 mins prior to test measured for 6 mins by tail suspension test; assay type: functional, organism-based
[6] = target: Metabotropic glutamate receptor 2 (Rattus norvegicus, UniProt P31421); experiment: Negative allosteric modulation of rat mGlu2 receptor expressed in HEK293 cells coexpressing Galpha15 assessed as inhibition of glutamate induced-calcium mobilization preincubated for 2.3 mins followed by glutamate addition measured for 1.9 mins by Fluo-4 AM dye based fluorescence assay; assay type: functional, cell-based
[7] = Fraction unbound in rat plasma at 5 uM after 4 hrs by equilibrium dialysis based LC/MS/MS analysis; assay type: ADME, cell-free
[8] = Unbound brain-to-plasma concentration ratio in rat; assay type: ADME; conditions: read-out: K(p,uu,brain)
[9] = Brain to plasma partition coefficient, Kp of the compound in rat; assay type: ADME
Cytochrome P450 3A4 = Cytochrome P450 3A4 (Homo sapiens, UniProt P08684); experiment: Inhibition of CYP3A4 in human liver microsomes using midazolam as substrate after 15 mins in presence of NADPH by LC/MS/MS analysis; assay type: ADME
Cytochrome P450 1A2 = Cytochrome P450 1A2 (Homo sapiens, UniProt P05177); experiment: Inhibition of CYP1A2 in human liver microsomes using phenacetin as substrate after 15 mins in presence of NADPH by LC/MS/MS analysis; assay type: ADME
[10] = Fraction unbound in human plasma at 5 uM after 4 hrs by equilibrium dialysis based LC/MS/MS analysis; assay type: ADME, cell-free
Cytochrome P450 2D6 = Cytochrome P450 2D6 (Homo sapiens, UniProt P10635); experiment: Inhibition of CYP2D6 in human liver microsomes using dextromethorphan as substrate after 15 mins in presence of NADPH by LC/MS/MS analysis; assay type: ADME
[11] = Fraction unbound in rat brain homogenate at 5 uM after 6 hrs by equilibrium dialysis based LC/MS/MS analysis; assay type: ADME, tissue-based
Cytochrome P450 2C9 = Cytochrome P450 2C9 (Homo sapiens, UniProt P11712); experiment: Inhibition of CYP2C9 in human liver microsomes using diclofenac as substrate after 15 mins in presence of NADPH by LC/MS/MS analysis; assay type: ADME
[12] = Drug uptake in Harlan CD-1 mouse brain at 3 mg/kg, ip by LC/MS-MS analysis; assay type: ADME, organism-based; conditions: in vivo, read-out: Drug uptake
[13] = Ratio of drug uptake in Harlan CD-1 mouse brain at 3 mg/kg, ip to IC50 for negative allosteric modulation of rat mGlu2 receptor expressed in HEK293 cells coexpressing Galpha15; assay type: ADME, organism-based; conditions: in vivo
Mus musculus [14] = experiment: Antidepressant activity in CD-1 mouse assessed as reduction in immobility time up to 30 mg/kg administered ip 15 mins prior to test measured for 6 mins by tail suspension test; assay type: functional, organism-based
Rattus norvegicus = species: Rattus norvegicus; experiment: Selectivity ratio of EC50 for positive allosteric modulation of rat mGlu5 receptor expressed in HEK293A cells to IC50 for negative allosteric modulation of rat mGlu3 receptor expressed in TREX cells coexpressing Galpha15; assay type: cell-based

Chain of Metabotropic glutamate receptor 3 (P31422 whole entry): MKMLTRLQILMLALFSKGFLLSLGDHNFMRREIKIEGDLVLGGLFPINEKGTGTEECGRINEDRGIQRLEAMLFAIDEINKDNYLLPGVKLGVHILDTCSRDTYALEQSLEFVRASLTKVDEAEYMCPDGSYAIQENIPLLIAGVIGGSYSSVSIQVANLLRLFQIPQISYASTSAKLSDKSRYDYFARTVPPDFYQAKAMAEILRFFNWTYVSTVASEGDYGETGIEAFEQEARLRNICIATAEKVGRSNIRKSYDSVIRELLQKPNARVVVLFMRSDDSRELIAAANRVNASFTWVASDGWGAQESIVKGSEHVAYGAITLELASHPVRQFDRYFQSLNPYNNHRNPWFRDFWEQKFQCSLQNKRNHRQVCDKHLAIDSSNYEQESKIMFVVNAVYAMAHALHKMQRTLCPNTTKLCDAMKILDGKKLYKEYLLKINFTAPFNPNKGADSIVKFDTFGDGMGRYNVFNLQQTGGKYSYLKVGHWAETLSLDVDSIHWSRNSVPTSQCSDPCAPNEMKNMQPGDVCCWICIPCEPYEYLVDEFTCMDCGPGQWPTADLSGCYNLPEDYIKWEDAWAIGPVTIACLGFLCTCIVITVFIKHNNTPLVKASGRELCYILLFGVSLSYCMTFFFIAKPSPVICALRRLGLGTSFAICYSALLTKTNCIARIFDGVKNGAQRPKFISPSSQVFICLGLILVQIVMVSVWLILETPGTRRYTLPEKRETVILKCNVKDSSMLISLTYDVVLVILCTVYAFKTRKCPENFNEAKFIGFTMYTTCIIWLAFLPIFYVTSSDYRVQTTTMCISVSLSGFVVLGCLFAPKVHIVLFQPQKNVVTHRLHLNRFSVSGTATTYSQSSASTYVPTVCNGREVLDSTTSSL
Chain of Metabotropic glutamate receptor 5 (P31424 whole entry): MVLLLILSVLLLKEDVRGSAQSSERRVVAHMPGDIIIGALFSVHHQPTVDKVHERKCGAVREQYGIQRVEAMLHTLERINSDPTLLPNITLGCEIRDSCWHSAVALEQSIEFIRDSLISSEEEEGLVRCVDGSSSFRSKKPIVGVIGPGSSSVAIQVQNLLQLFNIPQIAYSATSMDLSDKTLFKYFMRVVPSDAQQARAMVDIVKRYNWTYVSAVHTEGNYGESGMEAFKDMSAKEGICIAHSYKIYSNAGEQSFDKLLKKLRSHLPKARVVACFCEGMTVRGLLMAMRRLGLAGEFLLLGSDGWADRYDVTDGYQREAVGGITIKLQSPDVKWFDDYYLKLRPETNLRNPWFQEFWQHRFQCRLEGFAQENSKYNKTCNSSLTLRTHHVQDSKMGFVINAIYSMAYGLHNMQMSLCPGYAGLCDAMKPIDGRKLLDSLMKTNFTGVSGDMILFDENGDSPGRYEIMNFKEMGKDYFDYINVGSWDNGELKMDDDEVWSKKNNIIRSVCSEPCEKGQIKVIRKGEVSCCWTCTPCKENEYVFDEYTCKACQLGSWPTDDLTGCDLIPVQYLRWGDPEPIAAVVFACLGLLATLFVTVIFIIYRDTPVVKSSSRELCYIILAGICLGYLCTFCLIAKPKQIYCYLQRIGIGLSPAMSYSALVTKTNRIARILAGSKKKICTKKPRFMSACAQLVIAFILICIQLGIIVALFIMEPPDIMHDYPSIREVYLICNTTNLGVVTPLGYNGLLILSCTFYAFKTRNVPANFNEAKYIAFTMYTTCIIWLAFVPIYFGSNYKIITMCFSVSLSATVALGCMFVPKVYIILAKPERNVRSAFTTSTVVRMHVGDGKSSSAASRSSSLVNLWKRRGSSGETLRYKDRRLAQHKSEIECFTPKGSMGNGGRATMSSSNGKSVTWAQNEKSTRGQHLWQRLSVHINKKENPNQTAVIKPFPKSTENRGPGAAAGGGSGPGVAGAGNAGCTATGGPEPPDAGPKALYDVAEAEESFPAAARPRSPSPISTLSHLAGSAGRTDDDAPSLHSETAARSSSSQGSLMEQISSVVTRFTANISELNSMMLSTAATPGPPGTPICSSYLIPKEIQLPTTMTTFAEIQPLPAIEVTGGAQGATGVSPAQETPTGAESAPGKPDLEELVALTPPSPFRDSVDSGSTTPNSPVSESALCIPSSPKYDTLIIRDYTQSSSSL
Chain of Metabotropic glutamate receptor 5 (Rattus norvegicus) (P31424 21-1203 limits assumed): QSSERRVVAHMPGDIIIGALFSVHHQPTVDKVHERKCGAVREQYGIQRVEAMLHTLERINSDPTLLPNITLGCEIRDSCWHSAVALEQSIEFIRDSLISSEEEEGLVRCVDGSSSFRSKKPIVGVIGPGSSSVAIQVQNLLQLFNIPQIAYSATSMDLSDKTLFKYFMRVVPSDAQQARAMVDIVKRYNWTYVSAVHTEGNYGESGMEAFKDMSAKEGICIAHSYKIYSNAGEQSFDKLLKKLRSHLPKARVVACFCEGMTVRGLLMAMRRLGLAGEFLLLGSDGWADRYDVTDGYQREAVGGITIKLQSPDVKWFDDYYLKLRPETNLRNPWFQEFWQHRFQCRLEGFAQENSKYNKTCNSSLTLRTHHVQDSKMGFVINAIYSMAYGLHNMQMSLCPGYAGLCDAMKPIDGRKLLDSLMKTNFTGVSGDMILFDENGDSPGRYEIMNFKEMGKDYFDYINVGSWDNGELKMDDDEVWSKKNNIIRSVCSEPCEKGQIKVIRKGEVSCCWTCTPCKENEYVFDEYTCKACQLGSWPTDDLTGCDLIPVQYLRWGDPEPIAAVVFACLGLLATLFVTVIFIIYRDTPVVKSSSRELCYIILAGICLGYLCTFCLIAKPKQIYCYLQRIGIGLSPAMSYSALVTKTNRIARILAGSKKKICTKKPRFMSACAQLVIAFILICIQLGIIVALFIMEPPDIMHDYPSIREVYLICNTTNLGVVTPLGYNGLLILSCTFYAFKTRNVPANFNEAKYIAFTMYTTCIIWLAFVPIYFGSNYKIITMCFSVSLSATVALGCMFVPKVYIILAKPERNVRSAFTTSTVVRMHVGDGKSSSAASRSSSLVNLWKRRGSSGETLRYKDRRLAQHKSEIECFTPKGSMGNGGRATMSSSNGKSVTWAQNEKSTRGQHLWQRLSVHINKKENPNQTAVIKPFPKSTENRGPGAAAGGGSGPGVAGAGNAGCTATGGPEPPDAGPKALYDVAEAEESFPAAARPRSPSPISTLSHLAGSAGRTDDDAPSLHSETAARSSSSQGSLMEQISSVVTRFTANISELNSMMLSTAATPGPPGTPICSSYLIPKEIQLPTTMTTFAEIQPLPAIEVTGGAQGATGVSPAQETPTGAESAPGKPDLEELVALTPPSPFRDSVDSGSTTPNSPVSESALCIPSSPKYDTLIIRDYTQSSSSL
Chain of Metabotropic glutamate receptor 3 (Rattus norvegicus) (P31422 23-879 limits assumed): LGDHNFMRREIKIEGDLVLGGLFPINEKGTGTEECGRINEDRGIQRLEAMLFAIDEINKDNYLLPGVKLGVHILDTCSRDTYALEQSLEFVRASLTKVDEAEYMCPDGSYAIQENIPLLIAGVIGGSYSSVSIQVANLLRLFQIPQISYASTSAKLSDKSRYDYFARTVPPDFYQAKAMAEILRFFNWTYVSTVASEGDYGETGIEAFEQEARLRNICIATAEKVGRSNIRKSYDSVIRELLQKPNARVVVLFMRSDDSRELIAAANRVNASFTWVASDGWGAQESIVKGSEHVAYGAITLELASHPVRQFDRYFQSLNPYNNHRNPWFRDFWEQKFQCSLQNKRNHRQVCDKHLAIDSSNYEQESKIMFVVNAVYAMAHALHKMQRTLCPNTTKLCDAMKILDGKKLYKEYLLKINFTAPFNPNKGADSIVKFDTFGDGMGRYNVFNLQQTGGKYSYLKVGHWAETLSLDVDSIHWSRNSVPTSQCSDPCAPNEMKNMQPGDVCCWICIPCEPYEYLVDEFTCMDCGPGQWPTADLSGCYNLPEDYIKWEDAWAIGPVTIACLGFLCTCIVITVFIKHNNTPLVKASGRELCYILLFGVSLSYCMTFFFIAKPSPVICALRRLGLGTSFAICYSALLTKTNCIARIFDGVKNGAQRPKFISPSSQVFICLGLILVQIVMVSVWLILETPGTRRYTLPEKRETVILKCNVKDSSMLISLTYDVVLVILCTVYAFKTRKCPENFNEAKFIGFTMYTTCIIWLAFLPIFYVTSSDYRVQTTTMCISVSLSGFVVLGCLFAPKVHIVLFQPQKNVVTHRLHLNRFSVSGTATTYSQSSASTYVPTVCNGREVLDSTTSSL
Chain of Metabotropic glutamate receptor 2 (P31421 whole entry, looked up): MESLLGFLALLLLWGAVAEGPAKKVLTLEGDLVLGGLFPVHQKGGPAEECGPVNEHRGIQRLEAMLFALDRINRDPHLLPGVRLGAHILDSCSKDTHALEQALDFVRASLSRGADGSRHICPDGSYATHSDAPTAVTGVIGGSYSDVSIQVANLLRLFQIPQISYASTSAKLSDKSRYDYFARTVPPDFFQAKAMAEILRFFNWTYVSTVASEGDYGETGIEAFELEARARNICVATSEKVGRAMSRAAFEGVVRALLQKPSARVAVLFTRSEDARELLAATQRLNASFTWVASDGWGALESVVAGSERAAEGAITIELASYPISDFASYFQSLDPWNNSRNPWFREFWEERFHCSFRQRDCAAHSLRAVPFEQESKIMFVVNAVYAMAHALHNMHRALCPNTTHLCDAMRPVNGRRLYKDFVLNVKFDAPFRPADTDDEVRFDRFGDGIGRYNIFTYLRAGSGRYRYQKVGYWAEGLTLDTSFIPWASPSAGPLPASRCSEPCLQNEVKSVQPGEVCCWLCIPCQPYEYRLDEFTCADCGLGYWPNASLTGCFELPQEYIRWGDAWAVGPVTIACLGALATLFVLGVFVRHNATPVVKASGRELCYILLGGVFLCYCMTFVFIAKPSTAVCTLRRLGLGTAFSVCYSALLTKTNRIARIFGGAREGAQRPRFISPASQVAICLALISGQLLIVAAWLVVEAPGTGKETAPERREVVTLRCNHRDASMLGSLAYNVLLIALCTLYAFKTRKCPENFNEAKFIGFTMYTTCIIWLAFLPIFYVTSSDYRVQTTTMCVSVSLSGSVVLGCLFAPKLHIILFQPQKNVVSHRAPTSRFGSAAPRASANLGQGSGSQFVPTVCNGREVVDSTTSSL

Row | Compound | Emax [1] [%] | IC50 [2] [µM] | Emin [3] [%] | EC50 [4] [µM] | further results
1 | O=c1cc(OCCOc2ccccc2)ccn1-c1ccc(F)c(F)c1 | 91 | 0.18 | 3.53 | 0.34 | 
2 | CNC1(c2ccccc2Cl)CCCCC1=O (stereo not drawn) |  |  |  |  | Activity (Mus musculus [5]): Active
3 | C[C@H](COc1ccn(-c2ccc(F)cc2)c(=O)c1)Oc1ccccc1 |  | > 30 |  |  | IC50 [6]: > 30 µM
4 | O=c1nc(OCCOc2ccccc2)ccn1-c1ccc(F)c(F)c1 | 83 | 1.02 | 3.77 |  | 
5 | O=c1cc(OCCOc2cc(Cl)ccn2)ccn1-c1ccc(F)cc1 | 82 | 1.45 | 3.77 |  | 
6 | CC(COc1ccn(-c2ccc(F)cc2)c(=O)c1)Oc1ccccc1 (stereo not drawn) |  | 1.23 | 3.57 | > 30 | fraction unbound at 4 h, 5 µM [7]: 0.04; Kp uu [8]: 1.3; Kp [9]: 1.7; IC50 (Cytochrome P450 3A4): > 30 µM; IC50 (Cytochrome P450 1A2): > 30 µM; fraction unbound at 4 h, 5 µM [10]: 0.1; IC50 (Cytochrome P450 2D6): > 30 µM; fraction unbound at 6 h, 5 µM [11]: 0.05; IC50 (Cytochrome P450 2C9): > 30 µM
7 | O=c1nc(OCCOc2ccccc2)ccn1-c1ccc(F)cc1 | 97 | 0.29 | 3.94 |  | fraction unbound at 4 h, 5 µM [7]: 0.16; IC50 [6]: > 30 µM
8 | N#Cc1cc(F)cc(-n2ccc(OCCOc3ccccc3)cc2=O)c1 | 27 | 0.27 | 3.39 |  | 
9 | O=c1cc(OCCOc2ccccc2)ccn1-c1ccc(F)cc1 | 97 | 0.93 | 2.69 | 0.56 | 
10 | Cn1ccc(COc2cnc(C(N)=O)cc2-c2ccc(F)cc2)n1 |  |  |  |  | concentration [12]: 14 µM; Ratio [13]: 180; Activity (Mus musculus [14]): inactive
11 | O=c1cc(OCCOc2cccc(F)c2)ccn1-c1ccc(F)cc1 | 93 | 0.35 | 3.56 | 1.5 | 
12 | O=c1nc(OCCOc2ccccc2)ccn1-c1cccc(F)c1 | 77 | > 10 | 15.5 |  | 
13 | N#Cc1cccc(-n2ccc(OCCOc3ccccc3)cc2=O)c1 | 87 | 0.34 | 3.63 |  | Selectivity ratio (Rattus norvegicus): 18
14 | O=c1cc(OCCOc2ccccc2)ccn1-c1cccc(F)c1 | 88 | 0.39 | 3.45 | 1.9 | 
15 | O=c1cc(OCCOc2ncccc2Cl)ccn1-c1ccc(F)cc1 | 94 | 0.45 | 3.62 |  | 
